{
  "source": "patent US12036241B2",
  "about": "“Compositions and methods for immune cell modulation in adoptive immunotherapies” (Fate Therapeutics, Inc., priority 2017, dated 2024)",
  "key": {"CD8+ T cells": {"tested_on": "CD8+ T cells", "experiment": "Cytokine production (IFNγ, IL-2, TNFα) after PMA/ionomycin, intracellular staining", "assay_type": "cell-based, human", "settings": "PMA/ionomycin 4 h; for increase of IFNγ+ only subpopulation / increase of IL-2 only subpopulation: FIG. 3D", "method": "The ability of T cells to respond to a variety of stimuli can be important to their function. The capacity of T cells to produce multiple cytokines in response to non-specific stimulation is a measure of their ‘multifunctionality’. To assess whether compounds affect this ‘multifunctional’ response, the ability of modulated T cells to produce interferon-γ (IFNγ), IL-2 and/or TNFα post-stimulation was determined. After CD8^+ T cell treatment with each of the selected compounds, cells were stimulated with a mixture of PMA/ionomycin for four hours. Following stimulation, cytokine production was measured using intracellular cytokine staining with antibodies recognizing these cytokines conjugated to different fluorophores. Fluorescence was measured using flow cytometry. Cell were defined as multifunctional if they produced two or more cytokines. The proportion of T cell subsets that produce specific single, double or triple cytokines was examined and compared to cells without modulation using a selected compound.\nThe ability of T cells to respond to a variety of stimuli is important for their function. The capacity of T cells to produce multiple cytokines in response to non-specific stimulation is a measure of their “multifunctionality”. To assess whether selected compounds affect this “multifunctional” response in view of their phenotype skewing effect on the treated cells, the ability of treated cells to produce interferon-γ (IFNγ), IL-2 and TNFα post-stimulation was determined. After treatment of CD8+ T cells with a compound from Table 1, cells were stimulated with a mixture of PMA/ionomycin for four hours. Following stimulation, cytokine production was measured by intracellular cytokine staining with fluorescence-emitting antibodies recognizing these cytokines conjugated to different fluorophores. Fluorescence was measured using flow cytometry. Cells were defined as multifunctional if they produced at least two of the three cytokines."}, "[1]": {"tested_on": "T cells from healthy donors", "experiment": "T cell viability and expansion after compound treatment", "assay_type": "cell-based, human", "settings": "FIGS. 2A, 2B", "excerpt": "(§1) Fresh leukopaks (AllCells, Alameda, Calif.; Key Biologics, Memphis, Tenn.) were obtained from healthy donors, from which T cells were negatively selected using, for example, the EasySep Human T Cell Enrichment Kit (Stem Cell Technologies, Vancouver, Canada). The freshly isolated T cells were aliquoted and cryopreserved. On the day the assays were initiated, T cells were thawed and washed into X-Vivo 15 with supplements including IL-2 and pen/strep. Cells were dispensed into flat-bottom 384-well plates at 5×10^5 cells/ml with anti-CD3/Anti-CD28 beads. Individual compounds were added at a final concentration over the range of 10 μM to 10 nM to each well from column 3 to column 22 of each plate. Positive and negative controls were added to additional wells. Cells were incubated for about 6 days at 37 degrees with 5% CO2.\n(§2) These studies were performed with T cells from healthy donors. Six days post-initiation of culture in the presence of anti-CD3/CD28 beads and compound addition, cells were harvested and stained with a fixable viability marker and fluorophore-conjugated antibodies: CD3, CD4, CD8, CD62L, CCR7, CD27, and Tim3 (BD Biosciences, San Jose, Calif.; and BioLegend, San Diego, Calif.). Fluorescent absolute counting beads (Spherotech, Lake Forest, IL) were added just prior to acquisition. Data acquisition was performed on a BD Fortessa™ X-20 (BD Biosciences) and data were analyzed using Treestar™ software (FlowJo, Ashland, Oreg.) and Spotfire (Tibco, Boston, Mass.). The expression of surface markers including CD62L, CCR7 and CD27 was used to identify naïve, stem cell memory, or central memory T cells. After the treatment with each of the compounds, the surface marker expression profile of the treated cells was evaluated along with characterization of cell proliferation and viability. Compounds were scored on expression of these individual Tcm markers as well as CD62L/CCR7 double positive cells. Gene expression scores were also obtained based on a panel of selected 12 genes (Table 2) that are maximally differentially expressed in CD8 Tcm cells relative to Tem.\nThe phenotypic studies of the surface markers also included characterization of cell viability (FIG. 2A) and cell expansion (FIG. 2B). Scores for the graphs in FIGS. 2A-B were obtained using the formula: (Test value−minimum value)/(maximum value—minimum value)×10"}, "[2]": {"tested_on": "T cells from healthy donors", "experiment": "Phenotypic profiling of T cells: CCR7, CD62L, CD27 surface markers by flow cytometry", "assay_type": "cell-based, human", "settings": "FIG. 1A; for Tcm phenotype / effect on improving Tcm percentage: relative to vehicle", "excerpt": "as §1, §2\nThe selected groups of compounds were assessed for their ability to skew T cell phenotype. […] Tcm is characterized herein by expression of both CCR7 and CD62L. The expression of either CD62L or CCR7 on T cells, as indicative of the desired T cell subsets, indicates a favorable functional characteristic for CAR-T cell therapy, and potentially other adoptive T cell therapies. The phenotypic studies use flow cytometry to measure the expression levels of these key surface proteins. Compounds were scored on expression of these individual Tcm markers as well as CD62L/CCR7 double positive cells (FIG. 1A). The scores in FIG. 1A were generated using the values obtained from four donors and the formula: Score=Normalized StDev over Vehicle×Significance (−log 10(p-value))+1 Scores for other graphs in this figure used the same formula."}, "[3]": {"tested_on": "irradiated K562 cells expressing CD19 and mKate2", "experiment": "Target cell killing by compound-treated CAR-T cells (IncuCyte)", "assay_type": "cell-based, human", "settings": "earlier time points, 24 to 65 hours; FIG. 4A", "protocol": "An in vitro serial killing/re-stimulation assay, where the T cells treated by each compound were evaluated for various functions, including expansion and ability to kill tumor cells expressing the target antigen in vitro over multiple rounds of exposure to and withdrawal from antigen, was used as a model system. Such assays were carried out on cells treated with or without compounds, to assess the impact of individual compounds on cell function after repeated encounter with antigen, and cell expansion or persistence in such contexts.\nAn in vitro serial killing/re-stimulation assay, where CAR-T cells are tested for the ability to “clear” tumor cells in vitro over multiple rounds, can be used as a model to assess CAR-T expansion in the presence of tumor cells that express the antigen recognized by the CAR.\nCD8 T cells were transduced with CARs and the cells were then cryopreserved. After thawing, the CAR-T cells were co-cultured with irradiated K562 tumor cells that express transgenic mKate2, a far-red fluorescent protein, and CD19, the antigen recognized by the CAR. […]\nFrom this, the Area Under the Curve (AUC) for CAR-T cells treated with each compound can be calculated. […] To determine the effect of compound treatment on the killing ability of CAR-T cells, the AUC relative to target cells alone was determined."}, "CAR-T cells": {"tested_on": "CAR-T cells", "experiment": "Serial restimulation of CAR-T cells produced with vehicle, PI3K inhibitor or PDK1 inhibitor", "assay_type": "cell-based, human", "settings": "after antigen stimulation and withdrawal, and with coated beads; FIG. 10 legend", "method": "At the end of the manufacturing process, the cells were frozen prior to subsequent functional analysis.\nThe ability of CAR-T cells produced in the presence of vehicle, PI3K inhibitor, or PDK1 inhibitor to expand through multiple rounds of antigen stimulation was measured in a serial restimulation assay, wherein cryopreserved CAR-T cells were thawed and co-cultured in the presence of antigen-bearing, irradiated target cells. Every 3 to 4 days the CAR-T and target cell ratios were readjusted to approximately 1:1. […] As an alternative to using antigen-bearing, irradiated target cells for CAR-T cell stimulation, cryopreserved CAR-T cells from three independent donors produced in the presence of vehicle, PI3Ki or PDKli were thawed in T cell growth media and subsequently assessed for expansion and survival, as measured by AUC (area under the curve) of the expansion over 14 days of stimulation with anti-CAR antibodies conjugated to beads."}, "Nalm-6": {"tested_on": "Nalm-6", "experiment": "Survival in Nalm6/NSG tumor model, suboptimal CAR-T dose", "assay_type": "in vivo, NSG mice", "settings": "3×10^5 CD19 CAR-T cells; FIG. 12A; listed as PI3K inhibitor", "method": "(§3) Next, an in vivo assay was conducted to further characterize CAR-T cells produced in the presence of a PI3K inhibitor or a PDK1 inhibitor for tumor clearance. NSG mice were injected with a human leukemia line, Nalm-6. Four days later, mice were treated with a suboptimal dose (3×10^5) of freshly thawed CD19 CAR-T cells generated in the presence of vehicle (“DMSO” n=8), PI3K inhibitor (n=8), or PDK1 inhibitor (n=8). Some tumor bearing mice (n=2) also received expanded T cells that were not transduced with CAR (untransduced or “UNTD”). Negative control mice (n=2, “Unmanip”) received neither tumor nor CAR T cells. […] Seven days later, a suboptimal dose (2.5×10^5) of CD19 CAR-T cells produced in the presence of DMSO, PDK1 inhibitor, or PI3K inhibitor were transferred and the survival of the tumor bearing mice was monitored."}, "Raji": {"tested_on": "Raji", "experiment": "Survival in Raji/NSG tumor model, suboptimal CAR-T dose", "assay_type": "in vivo, NSG mice", "settings": "2.5×10^5 CD19 CAR-T cells; FIG. 12B; listed as PI3K inhibitor", "method": "as §3"}},
  "note": "“Also recorded” adds a separate entry of the source.",
  "data": [
    {"smiles": "Cc1sc2c(c1C)C(c1ccc(Cl)cc1)=N[C@@H](CC(=O)Nc1ccc(O)cc1)c1nnc(C)n1-2", "note": "[Compound 1, OTX015]", "values": [
      {"measurement": "increase of total multifunctional subpopulation (at least 2 cytokines)", "setting": "CD8+ T cells; CD8+ T cells, vs vehicle", "result": "~16", "unit": "fold"},
      {"measurement": "increase of cells producing all three cytokines", "setting": "CD8+ T cells; IFNγ, IL-2, TNFα", "result": "~13", "unit": "fold"},
      {"measurement": "increase of IFNγ+ only subpopulation", "setting": "CD8+ T cells", "result": "about 33 fold"}
    ]},
    {"smiles": "Cc1ccc(-c2ncc(Cl)cc2-c2ccc(S(C)(=O)=O)cc2)cn1", "note": "[Compound 7, Etoricoxib]", "values": [
      {"measurement": "cell viability and/or expansion relative to vehicle treatment", "setting": "[1]", "result": "enhance cell viability and/or expansion"},
      {"measurement": "Tcm phenotype / effect on improving Tcm percentage", "setting": "[2]", "result": "minimal effect"}
    ]},
    {"smiles": "O=C1NCCN1CCN1CCC(c2cn(-c3ccc(F)cc3)c3ccc(Cl)cc23)CC1", "note": "[Compound 8, Sertindole]", "values": [
      {"measurement": "cell viability and/or expansion relative to vehicle treatment", "setting": "[1]", "result": "enhance cell viability and/or expansion"},
      {"measurement": "Tcm phenotype / effect on improving Tcm percentage", "setting": "[2]", "result": "minimal effect"}
    ]},
    {"smiles": "CC1(C)O[C@@H]2C[C@H]3[C@@H]4C[C@H](F)C5=CC(=O)C=C[C@]5(C)[C@H]4[C@@H](O)C[C@]3(C)[C@]2(C(=O)CO)O1", "note": "[Compound 10, Flunisolide]", "values": [
      {"measurement": "cell viability and/or expansion relative to vehicle treatment", "setting": "[1]", "result": "enhance cell viability and/or expansion"},
      {"measurement": "Tcm phenotype / effect on improving Tcm percentage", "setting": "[2]", "result": "minimal effect"}
    ]},
    {"smiles": "CC(=O)OCC(=O)[C@@]1(O)[C@H](C)C[C@H]2[C@@H]3CCC4=CC(=O)C=C[C@]4(C)[C@@]3(F)[C@@H](O)C[C@@]21C", "note": "[Compound 11, Dexamethasone Acetate]", "values": [
      {"measurement": "cell viability and/or expansion relative to vehicle treatment", "setting": "[1]", "result": "enhance cell viability and/or expansion"},
      {"measurement": "Tcm phenotype / effect on improving Tcm percentage", "setting": "[2]", "result": "minimal effect"}
    ]},
    {"smiles": "CC(=O)OCC(=O)[C@@]12OC3(CCCC3)O[C@@H]1C[C@H]1[C@@H]3CCC4=CC(=O)C=C[C@]4(C)[C@@]3(F)[C@@H](O)C[C@@]12C", "note": "[Compound 12, Amcinonide]", "values": [
      {"measurement": "cell viability and/or expansion relative to vehicle treatment", "setting": "[1]", "result": "enhance cell viability and/or expansion"},
      {"measurement": "Tcm phenotype / effect on improving Tcm percentage", "setting": "[2]", "result": "minimal effect"}
    ]},
    {"smiles": "C1=C/COCc2cc(ccc2OCCN2CCCC2)Nc2nccc(n2)-c2cccc(c2)COC/1", "note": "[Compound 17, Pacritinib]", "values": [
      {"measurement": "increase of IL-2 only subpopulation", "setting": "CD8+ T cells", "result": "about 11 fold"}
    ]},
    {"smiles": "C[C@@H]1CCN(C(=O)CC#N)C[C@@H]1N(C)c1ncnc2[nH]ccc12", "note": "[Compound 18, Tofacitinib]", "values": [
      {"measurement": "increase of IL-2 only subpopulation", "setting": "CD8+ T cells", "result": "~4", "unit": "fold"}
    ]},
    {"smiles": "Cc1ccc(NC(=O)c2cccc(C(C)(C)C#N)c2)cc1Nc1ccc2ncn(C)c(=O)c2c1", "note": "[Compound 23, AZ628]", "values": [
      {"measurement": "increase of IFNγ+ only subpopulation", "setting": "CD8+ T cells", "result": "~116", "unit": "fold"},
      {"measurement": "increase of IL-2 only subpopulation", "setting": "CD8+ T cells", "result": "~18", "unit": "fold"},
      {"measurement": "kinetics of target cell killing compared to vehicle", "setting": "[3]", "result": "slower than for vehicle"}
    ]},
    {"smiles": "CC(C)(C)c1nc(-c2cccc(NS(=O)(=O)c3c(F)cccc3F)c2F)c(-c2ccnc(N)n2)s1", "note": "[Compound 24, Dabrafenib]", "values": [
      {"measurement": "increase of the percentage of CCR7, CD62L double positive cells (Tcm) relative to vehicle", "setting": "[2]; T cells, about 6 days with anti-CD3/CD28 beads, vs DMSO", "result": "about 10 fold"}
    ]},
    {"smiles": "Oc1cccc(-c2nc(N3CCOCC3)c3oc4ncccc4c3n2)c1", "note": "[PI103]", "values": [
      {"measurement": "CAR-T cell expansion", "setting": "CAR-T cells", "result": "improves CAR-T cell expansion"},
      {"measurement": "survival of tumor bearing mice compared to DMSO generated CAR-T cells", "setting": "Nalm-6", "result": "prolonged survival; also recorded: improves survival"},
      {"measurement": "survival of tumor bearing mice compared to DMSO treated CAR-T cells", "setting": "Raji", "result": "substantially improved; also recorded: improves survival"}
    ]}
  ]
}
